# Results: a melting point compilation (Tetko et al.; mined from patent text by program, amines drawn as free bases though some values may be those of a salt)
row,Compound,melting point [°C]
1,CCCn1c(COCC)nc2c(N)nc3ccc(OCCCN4CCCC4=O)cc3c21,188 to 190
2,c1cn(CC2CCCCC2)cn1,25 to 30
3,Cn1ncc(C=O)c1-c1ccoc1,70 to 71
4,O=C(O)c1cc(S(=O)(=O)CCO)ccc1[N+](=O)[O-],165 to 167
5,CCCOc1ccc(S(=O)(=O)N2CCC(C(=O)OCC)CC2)cc1-c1nc2cc(N)c(N)cc2c(=O)[nH]1,197 to 199
6,COC(=O)/C=C/[C@H]1[C@@H](C(=O)OCc2cnc(Oc3ccccc3)s2)C1(C)C,62
7,Cc1ncc2n1-c1ccccc1C(c1ccccc1)=NC2,180 to 182
8,COC(=O)C=Cc1ccc2ccccc2n1,85 to 86
9,CCc1nc2c(N)nc(C)c(C)c2n1CCOCCN1CCCS1(=O)=O,157 to 159
10,O=c1[nH]c2ccc(Br)cc2c(-c2ccccc2)[n+]1[O-],275 to 276
11,CC(=O)c1ccc(CCNS(C)(=O)=O)cc1,80 to 81
12,Nc1ncnc2c1ncn2COCCO,200
13,N#Cc1cc2[nH]c(=O)c(=O)n(C3CCCCC3)c2c2ccccc12,> 300
14,COC(=O)c1[nH]c2ccccc2c1Oc1ccc(Cl)cc1[N+](=O)[O-],171 to 172
15,Cc1cc(NCc2ccc3oc(-c4ccccc4-c4nnn[nH]4)c(Br)c3c2)n2nccc2n1,> 250
16,CC(C)(C)n1nnc(C(C=O)=C(c2ccc(F)cc2)c2ccc(F)cc2)n1,131 to 133
17,CCOC(=O)c1cc(C=Cc2ccc(O)c(OC)c2)n[nH]1,99 to 101
18,O=C(O)COc1c(Br)cc(-c2cccc3sc4ccccc4c23)cc1Br,212 to 213
19,CCCc1ccc(CCNC(C)=O)cc1,52
20,CCCc1n[nH]c(C(N)=O)c1[N+](=O)[O-],197 to 199
21,CC(C)(C)c1ccc2c(c1)C=C(C(=O)O)C(C(F)(F)F)S2 (configuration not stated),184 to 185

row,Compound,melting point [°C]
1,CCc1ccc2c(c1)C=Cc1sc(C)nc1C2c1cn(Cc2cccc(C(=O)O)c2)c(=O)[nH]c1=O (configuration not stated),159 to 161
2,CCS(=O)(=O)Nc1ccc(F)c(N)c1,106 to 108
3,CN(C)C(=O)CCc1ccc(NC(=O)Nc2ccc(Cl)c(C(F)(F)F)c2)c(-c2nnn[nH]2)c1,184 to 189
4,CN1CCc2cc(S(=O)(=O)Nc3cnc4cc(Cl)ccc4n3)ccc21,189 to 190
5,Cc1ccsc1C(=O)NCCO[N+](=O)[O-],74 to 76
6,CCc1cccc(CC)c1NC(=O)C1c2ccccc2COc2ccc(C(C)C)cc21 (configuration not stated),170
7,COC(=O)C(=O)c1occc1/C=C/c1ccccc1,116
8,CN(C)/C=C/C(=C(C#N)C#N)c1ccc2cc(N(C)C)ccc2c1,213 to 215
9,CC1CC(C)(CO)CN1c1ccc(C#N)c2ccccc12 (configuration not stated),100 to 101
10,CN1CCC(c2c[nH]c3ccc(NC(=O)C4CCC4)nc23)CC1,104
11,Cc1csc(C#CCCn2nc3ccccc3n2)n1,78 to 80
12,O=C1C=C(c2ccc(O)cc2)C(=O)N1,158 to 162
13,CC(C)(SSc1ccccc1C(=O)Nc1ccc(S(N)(=O)=O)cc1)C(N)C(=O)O (configuration not stated),115 to 118
14,CCOP(=O)(Cc1cc(C2CCCCC2)c(O)c(C2CCCCC2)c1)OCC,120
15,CC(=O)NCc1cccc(Nc2nccc(-c3sc(-c4ncc(C(F)(F)F)cc4Cl)nc3C)n2)c1,217 to 218
16,Cc1ccccc1C(=O)c1cc2c(c(Br)c1O)CCCC2,151 to 153
17,CSc1ccc(F)cc1C(C)=O,82 to 84.3
18,O=C1Nc2ccccc2N(C(=O)Cl)c2c1csc2Cl,158 to 161
19,CCCCn1c(COCC)nc2c(N)nc3ccccc3c21,139 to 140
20,Cc1cn(-c2ccc(NC(=O)c3ccc(Cl)c(C#Cc4cnc(NC5CC5)nc4)c3)cc2C(F)(F)F)cn1,141 to 143
21,Cc1c(Cl)cc(-c2ccc(=O)[nH]n2)cc1Br,247 to 250
